In patent US10155754B2, “Substituted 2-imino-1,3-thiazolidin-4-ones as N-arachidonoylethanolamine cellular uptake inhibitors” (UNIVERSITAT BERN, priority 2014, dated 2018):

The molecules below were run on AEA cellular uptake (U937 cells) (assay: [3H]-AEA cellular uptake inhibition in U937 cells). Conditions: Homo sapiens, U-937, U937 cells, final 100 nM AEA with 0.5 nM [3H]-AEA, 15 min at 37° C.; read-out: AEA uptake IC50.
Assay type: cell-based
Description: [^3H]-AEA Cellular Uptake
Screening for AEA cellular uptake inhibition was performed in a semi-automated procedure: Pipetting and washing steps were performed by a Biomek3000 laboratory workstation. First, required amounts of U937 cells were centrifuged at 100×g for 5 min and resuspended in RPMI (37° C.) to a final concentration of 2×10^6 cells/mL. Then, 250 μL of cell suspension (0.5×10^6 cells per sample) were transferred into AquaSil™ silanized glass vials (Chromacol 1.1-MTV) in 96-well format. After addition of 5 μL vehicle (DMSO) or compounds the cells were incubated at 37° C. for 15 min. As positive controls OMDM-2 and UCM707 were used at 10 μM in each run. The ETI-T compounds were measured at up to 7 concentrations in triplicates from 100 pM-100 μM. After pre-incubation, a mixture of 0.5 nM [ethanolamine-1-^3H]-AEA, (60 Ci/mmol) and 99.5 nM of cold AEA (final 100 nM) was added and samples were incubated at 37° C. for another 15 min. The reaction was stopped by rapid filtration over UniFilter-96 GF/C filters (PerkinElmer) pre-soaked with PBS 0.25% BSA. Cells were washed three times with 100 μL ice-cold PBS buffer containing 1% fatty acid free BSA. After drying, 45 μL MicroScint 20 scintillation cocktail (PerkinElmer, Waltham, Mass., US) was added to the wells and the plate was sealed. Radioactivity was measured by liquid scintillation counting on a PerkinElmer Wallac Trilux MicroBeta 1450 during 2 min. Non-specific binding of [^3H]AEA (100 nM) to the glass vials was never higher than 10%. IC50 values were calculated by GraphPad® by non-linear regression using the built-in log(inhibitor) vs. response-variable slope (four parameters) function.

SMILES	IC50 [µM]
Cc1ccc(N2C(=O)/C(=C/c3ccc4[nH]ccc4c3)S/C2=N\c2ccc(F)cc2)cc1 [03_B_A, (2Z,5Z)-5-((1H-indol-5-yl)methylene)-2-(4-fluorophenylimino)-3-p-tolylthiazolidin-4-one]	0.76
O=C1/C(=C/c2ccc3[nH]ccc3c2)S/C(=N\Cc2ccccc2)N1CCCc1ccccc1 [03_C_K, (2Z,5Z)-5-((1H-indol-5-yl)methylene)-2-(benzylimino)-3-(3-phenylpropyl)thiazolidin-4-one]	0.564
O=C1/C(=C/c2ccc3[nH]ccc3c2)S/C(=N\Cc2ccccc2)N1CCc1ccccc1 [03_C_O, (2Z,5Z)-5-((1H-indol-5-yl)methylene)-2-(benzylimino)-3-phenethylthiazolidin-4-one]	0.727
COc1ccc(/N=C2\S/C(=C\c3ccc4[nH]ccc4c3)C(=O)N2c2ccccc2)cc1 [03_F_N, (2Z,5Z)-5-((1H-indol-5-yl)methylene)-2-(4-methoxyphenylimino)-3-phenylthiazolidin-4-one]	1.07
O=C1/C(=C/c2ccc3[nH]cnc3c2)S/C(=N\c2ccccc2)N1Cc1ccccc1 [03_N_C, (2Z,5Z)-5-((1H-benzo[d]imidazol-5-yl)methylene)-3-benzyl-2-(phenylimino)thiazolidin-4-one]	0.61
O=C1/C(=C/c2ccc3[nH]ccc3c2)S/C(=N\c2ccccc2)N1CCCc1ccccc1 [03_N_K, (2Z,5Z)-5-((1H-indol-5-yl)methylene)-2-(phenylimino)-3-(3-phenylpropyl)thiazolidin-4-one]	0.564
O=C1/C(=C/c2ccc3[nH]ccc3c2)S/C(=N\c2ccccc2)N1Cc1ccco1 [03_N_M, (2Z,5Z)-5-((1H-indol-5-yl)methylene)-3-((furan-2-yl)methyl)-2-(phenylimino)thiazolidin-4-one]	0.879
O=C1/C(=C/c2ccc3[nH]ccc3c2)S/C(=N\CCc2ccccc2)N1c1ccccc1 [03_U_N, (2Z,5Z)-5-((1H-indol-5-yl)methylene)-2-(phenethylimino)-3-phenylthiazolidin-4-one]	0.509
CCCCCCCCCCCCN1C(=O)/C(=C/c2ccc(CO)cc2)S/C1=N\c1ccc(C)cc1 [04_A_V, (2Z,5Z)-5-(4-(hydroxymethyl)benzylidene)-2-(p-tolylimino)-3-dodecylthiazolidin-4-one]	> 10
CC(C)CN1C(=O)/C(=C/c2ccc3[nH]cnc3c2)S/C1=N\c1ccc(F)cc1 [04_B_X, (2Z,5Z)-5-((1H-benzo[d]imidazol-5-yl)methylene)-2-(4-fluorophenylimino)-3-isobutylthiazolidin-4-one]	0.578
O=C1/C(=C/c2ccc3[nH]cnc3c2)S/C(=N\Cc2ccccc2)N1c1ccc(F)cc1 [04_C_B, (2Z,5Z)-5-((1H-benzo[d]imidazol-5-yl)methylene)-2-(benzylimino)-3-(4-fluorophenyl)thiazolidin-4-one]	0.861
CCCCN1C(=O)/C(=C/c2ccc3[nH]cnc3c2)S/C1=N\Cc1ccccc1 [04_C_G, (2Z,5Z)-5-((1H-benzo[d]imidazol-5-yl)methylene)-2-(benzylimino)-3-butylthiazolidin-4-one]	1.06
O=C1/C(=C/c2ccc3[nH]cnc3c2)S/C(=N\Cc2ccccc2)N1CCCc1ccccc1 [04_C_K, (2Z,5Z)-5-((1H-benzo[d]imidazol-5-yl)methylene)-2-(benzylimino)-3-(3-phenylpropyl)thiazolidin-4-one]	1.14
O=C1/C(=C/c2ccc3[nH]cnc3c2)S/C(=N\Cc2ccccc2)N1CCc1ccccc1 [04_C_O, (2Z,5Z)-5-((1H-benzo[d]imidazol-5-yl)methylene)-2-(benzylimino)-3-phenethylthiazolidin-4-one]	1.12
Cc1ccc(/N=C2\S/C(=C\c3ccc4[nH]cnc4c3)C(=O)N2c2ccccc2)nc1 [04_D_N, (2Z,5Z)-5-((1H-benzo[d]imidazol-5-yl)methylene)-2-(5-methylpyridin-2-ylimino)-3-phenylthiazolidin-4-one]	1.59
CCCCN1C(=O)/C(=C/c2ccc3[nH]cnc3c2)S/C1=N\c1ccccc1 [04_N_G, (2Z,5Z)-5-((1H-benzo[d]imidazol-5-yl)methylene)-3-butyl-2-(phenylimino)thiazolidin-4-one]	0.557
O=C1/C(=C/c2ccc3[nH]cnc3c2)S/C(=N\c2ccccc2)N1CCCc1ccccc1 [04_N_K, (2Z,5Z)-5-((1H-benzo[d]imidazol-5-yl)methylene)-2-(phenylimino)-3-(3-phenylpropyl)thiazolidin-4-one]	0.727
O=C1/C(=C/c2ccc3[nH]cnc3c2)S/C(=N\Cc2ccc(F)cc2)N1c1ccccc1 [04_P_N, (2Z,5Z)-5-((1H-benzo[d]imidazol-5-yl)methylene)-2-(4-fluorobenzylimino)-3-phenylthiazolidin-4-one]	1.02
O=C1/C(=C/c2ccc3[nH]cnc3c2)S/C(=N\Cc2cccnc2)N1c1ccccc1 [04_S_N, (2Z,5Z)-2-((pyridin-3-yl)methylimino)-5-((1H-benzo[d]imidazol-5-yl)methylene)-3-phenylthiazolidin-4-one]	0.878

Same assay, conditions: Homo sapiens, U-937, U937 cells, final 100 nM AEA with 0.5 nM [3H]-AEA, 15 min at 37° C.; read-out: AEA uptake inhibition IC50

SMILES	IC50 [µM]
O=C1/C(=C/c2ccc3cc[nH]c3c2)S/C(=N\c2ccccc2)N1c1ccccc1	2.3
O=C1/C(=C/c2ccc3nccnc3c2)S/C(=N\c2ccccc2)N1c1ccccc1	7.1
COc1ccc(/C=C2\S/C(=N\c3ccccc3)N(c3ccccc3)C2=O)cn1	15.6
COc1cncc(/C=C2\S/C(=N\c3ccccc3)N(c3ccccc3)C2=O)c1	6.7
COc1ccc(/C=C2\S/C(=N\c3ccccc3)N(c3ccccc3)C2=O)nc1	6.6
COc1ccnc(/C=C2\S/C(=N\c3ccccc3)N(c3ccccc3)C2=O)c1	1.6
COc1cc(/C=C2\S/C(=N\c3ccccc3)N(c3ccccc3)C2=O)ccn1	5.5
O=C1/C(=C/c2ccccc2)S/C(=N\c2ccccc2)N1c1ccccc1	2.78
O=C1/C(=C/c2ccc3c(c2)OCO3)S/C(=N\c2ccccc2)N1c1ccccc1	3.36
COc1ccc(/C=C2\S/C(=N\c3ccccc3)N(c3ccccc3)C2=O)cc1	2.12
O=C1/C(=C/c2ccc3[nH]c(=O)oc3c2)S/C(=N\c2ccccc2)N1c1ccccc1	5.56
O=C1/C(=C/c2ccc3occc3c2)S/C(=N\c2ccccc2)N1c1ccccc1	3.26
CSc1ccc(/C=C2\S/C(=N\c3ccccc3)N(c3ccccc3)C2=O)cc1	9.94
O=C1/C(=C/c2ccc3sccc3c2)S/C(=N\c2ccccc2)N1c1ccccc1	4.63
O=C1/C(=C/c2ccc3scnc3c2)S/C(=N\c2ccccc2)N1c1ccccc1	11.8
Cc1ccc(/N=C2\S/C(=C\c3ccccc3)C(=O)N2c2ccccc2)cc1	3.24
COc1ccc(/N=C2\S/C(=C\c3ccccc3)C(=O)N2c2ccccc2)cc1	2.34
COc1ccc(/C=C2\S/C(=N\c3ccc(C)cc3)N(c3ccccc3)C2=O)cc1	5.1

SMILES	IC50 [µM]
COc1ccc(/C=C2\S/C(=N\Cc3ccccc3)N(c3ccccc3)C2=O)cc1	0.44
COc1ccc(/C=C2\S/C(=N\c3ccc(C)cn3)N(c3ccccc3)C2=O)cc1	2.8
C/N=C1\S/C(=C\c2ccc(OC)cc2)C(=O)N1c1ccccc1	6.92
COc1ccc(/C=C2\S/C(=N\c3ccc(OC)cc3)N(c3ccccc3)C2=O)cc1	1.74
O=C1/C(=C/c2ccc3[nH]cnc3c2)S/C(=N\Cc2ccccc2)N1c1ccccc1	2.14
Cc1ccc(/N=C2\S/C(=C\c3ccc4[nH]ccc4c3)C(=O)N2c2ccccc2)nc1	2.73
C/N=C1\S/C(=C\c2ccc3[nH]ccc3c2)C(=O)N1c1ccccc1	16.6
O=C1/C(=C/c2ccc3[nH]ccc3c2)S/C(=N\c2ccccc2)N1Cc1ccccc1	0.61
CCCCN1C(=O)/C(=C/c2ccc3[nH]ccc3c2)S/C1=N\c1ccccc1	0.677
O=C1/C(=C/c2ccc3[nH]cnc3c2)S/C(=N\c2ccccc2)N1Cc1ccco1	1.84
O=C1/C(=C/c2ccccc2)S/C(=N\c2ccccc2)N1Cc1ccccc1	5.42
CCCCN1C(=O)/C(=C/c2ccccc2)S/C1=N\c1ccccc1	4.15
O=C1/C(=C/c2ccccc2)S/C(=N\c2ccccc2)N1Cc1ccco1	1.81
COc1ccc(/C=C2\S/C(=N\c3ccccc3)N(Cc3ccccc3)C2=O)cc1	2.29
COc1ccc(/C=C2\S/C(=N\c3ccccc3)N(c3ccc(OC)cc3)C2=O)cc1	7.18
CCCCN1C(=O)/C(=C/c2ccc(OC)cc2)S/C1=N\c1ccccc1	2.27
COc1ccc(/C=C2\S/C(=N\c3ccccc3)N(Cc3ccco3)C2=O)cc1	3.18

Same assay, conditions: U937 cells, final 100 nM AEA with 0.5 nM [3H]-AEA, 15 min at 37° C.; read-out: AEA uptake IC50

SMILES	IC50 [µM]
Cc1ccc(N2C(=O)/C(=C/c3ccc4[nH]cnc4c3)S/C2=N\c2ccc(F)cc2)cc1 [04_B_A, (2Z,5Z)-5-((1H-benzo[d]imidazol-5-yl)methylene)-2-(4-fluorophenylimino)-3-p-tolylthiazolidin-4-one]	0.527
